Test results from US6958141B2, “Rhenium and technetium complexes containing a hypoxia-localizing moiety” (Bracco International B.V., priority 1991, dated 2005).

Key:
[1] = tested on: hypoxic ischemic border zone; assay: Rabbit focal myocardial ischemia model (LAD occlusion), double-label autoradiography; format: in vivo; conditions: permanent LAD coronary artery ligation, intravenous tracer, heart sections
Protocol: A model of focal myocardial ischemia in the rabbit was developed, using permanent ligation of the left anterior descending (LAD) coronary artery. The model consisted of two studies. In the first, relative regional myocardial blood flow (MBF) and relative regional myocardial rate of glucose metabolism (MMRgl) were determined by autoradiography using a double-label study with the flow tracer ^99mTcCl(CDO)3MeB (R. K. Narra et al., J. Nucl. Med., 1989; 30:1830-1837) and ^14C-deoxy-glucose for MMRgl (L. Sokoloff et al., J. Neurochem., 1977, 28, 897-916). ^14C-deoxyglucose and the ^99mTc-hypoxia-localizing tracer were administered to a second group of rabbits with LAD coronary artery occlusion.
After the surgical preparation and 20 minutes of LAD occlusion, ^14C-deoxyglucose (130-150 μCi) was injected as an intravenous bolus, and timed arterial blood samples were obtained. Twenty-five minutes later, ^99mTcCl(CDO)3MeB (10-12 mCi) was administered intravenously. Five minutes later, the rabbits were sacrificed by intravenous injection of Nembutal and potassium chloride. The heart was excised, frozen in liquid Freon-22, and 20 μm coronal sections obtained with a Microtome. Autoradiographs were obtained on all sections. For the first exposure (˜14 hours duration) of Kodak XAR film, extra heavy duty aluminum foil was interposed between the tissue and film to block completely the radiation emanating from ^14C to obtain the MBF information derived from ^99mTcCl(CDO)3MeB alone. After three days (to allow for decay of ^99mTc); a second autoradiograph was obtained without foil. The second exposure lasted 6-8 days, and,provided an image of the regional distribution of ^14C-deoxyglucose.
In a separate experiment using the rabbit LAD occlusion model and the double-label autoradiography procedures described above, the performance of the ^99mTc complex of the ligand described in Example 1 was compared to that of ^14C-misonidazole.

[2] = Determination of reduction potential by cyclic voltammetry; format: physicochemical; conditions: for Epc(V): cyclic voltammetry in dimethylformamide at Hg, vs. Ag/AgNO3; for Reduction process: cyclic voltammetry in dimethylformamide
Protocol: The reduction potentials of misonidazole, ^99TcO(PnAO), and ^99Tc-hypoxia-localizing tracers were determined by cyclic voltammetry (C.V.) in dimethylformamide. […] The reference electrode was Ag/AgNO3 with an acetonitrile filling solution saturated with LiCl. The counter electrode was a platinum wire. Voltamograms at mercury were determined at scan rates of 50, 100, 200, and 500 mV/s.
The solutions used in C.V. studies contained test sample at a concentration of 0.2-0.7 mM and tetrabutylammonium tetrafluoroborate (Bu4NBF4) or tetrabutylammonium hexafluorophosphate (Bu4NPF6) supporting electrolyte at a concentration of 0.1M. The solution was deoxygenated by bubbling solvent-saturated nitrogen or argon through the solution for 15 minutes. Variations in the reference potential were accounted for by determining the C.V. of a Ru(acac)3 standard on a daily basis.

[3] = tested on: Calcium-tolerant ventricular myocytes; assay: Isolated cardiac myocyte studies, retention of radioactivity; format: cell-based, male Sprague Dawley rats; conditions: isolated myocytes; for Anoxia/normoxia ratio: % in Cell Pellet; for % in Cell Pellet, Anoxia / % in Cell Pellet, Normoxia: several Tc-99m complexes
Description: Calcium-tolerant ventricular myocytes were isolated from hearts of male Sprague Dawley rats (200 g) according to the procedure of Wittenberg and Robinson (B. A. Wittenberg and T. F. Robinson, Cell Tissue Res., 216: 231, 1981) with modifications described previously (W. Rumsey, C. Schlosser, E. M. Nuutinen, M. Robiolio and D. F. Wilson, J. Biol. Chem., 265 (26): 15392, 1990). Cells were used immediately following morphological analysis (using a hemocytometer) of viability and were maintained at 37° C. during the experiments. The number of quiescent, rod shaped cells ranged from 70-90% within a total population of 5-9×10^6 cells.
The isolated myocytes were maintained in either a normoxic, hypoxic or anoxic state. Hypoxia was induced by providing an atmosphere of argon atop of the cells and sealing the flask during the incubation period. Glucose oxidase plus catalase (5/5 mg) was added to argon treated cells to provide anoxia. Cells were suspended (6.5-7.5×10^4 cells/ml) in isolation media and aliquots were added to incubation vials maintained at 37° C.
After incubation with a test compound, myocytes were deproteinated with 1% ice-cold perchloric acid and centrifuged at 12,000 rpm for 30 sec. The supernatent was separated from the pellet and each counted using a LKB 1282 gamma counter. Alternatively, myocytes were separated from the suspending media by passing the cells through 99% dibutyl phthalate by centrifugation at 12,000 rpm for 30 sec. The three phases were separated and counted as described above. Results for the Tc-99m complex of the compound in Example 1 are given below:
Values represent means ±S.E.M. for the number of experiments noted in the parentheses. The values are the percent of total radioactivity represented by each case. PCA pellet=perchloric acid-precipitated pellet which represents the activity associated with proteins/membranes. Cell pellet=whole cells passed through a layer of dibutyl phthalate (oil).
Several Tc-99m complexes were examined in isolated myocytes using the protocol described above. The percentage of activity retained in the cell pellet was determined under anoxic and normoxic states.

Molecule: CC(=NO)C(C)(C)NCCCNC(C)(C)C(COCC(O)Cn1ccnc1[N+](=O)[O-])=NO (stereo not drawn) [Example 31, 3,3,9,9-Tetramethyl-1-[2-hydroxy-3-(2-nitro-1H-imidazol-1-yl)propoxy]-4,8-diazaundecane-2,10-dione dioxime]
- melting point: 134 to 135 °C

Molecule: CCOCC(=NO)C(C)(C)NCCCNC(C)(C)C(Cn1ccnc1[N+](=O)[O-])=NO [Example 25, 11-Ethoxy-3,3,9,9-tetramethyl-1-(2-nitro-1H-imidazol-1-yl)-4,8-diazaundecane-2,10-dione dioxime]
- melting point: 122 to 123 °C

Molecule: CC(=NO)C(C)(C)NCC(F)(F)CNC(C)(C)C(CCn1ccnc1[N+](=O)[O-])=NO [Example 30, 6,6-Difluoro-3,3,9,9-tetramethyl-12-(2-nitro-1H-imidazol-1-yl)-4,8-diazadodecane-2,10-dione dioxime]
- melting point: 90 to 92 °C

Molecule: ^14C-misonidazole
- regional myocardial distribution pattern (autoradiography) [1]: high uptake in the hypoxic border zone of the ischemic territory and low uptake in normoxic regions

Molecule: CC(=NO)C(C)(C)NCC(CNC(C)(C)C(C)=NO)NC(=O)Cn1ccnc1[N+](=O)[O-] (stereo not drawn) [Example 5, 3,3,9,9-Tetramethyl-6-((2-nitro-1H-imidazo-1-yl)acetamido)-4,8-diazaundecane-2,10-dione dioxime]
- Epc(V) ([2]; first or only reduction listed): −1.52 V
- Reduction process ([2]; first or only reduction listed): reversible

Molecule: CC1=[N+](O)[99Tc-]23(=[O])[N](CCC[N]2C1(C)C)C(C)(C)C(Cn1cnc([N+](=O)[O-])c1)=[N+]3[O-] [Example 6a, [^99Tc]Oxo[[3,3,9,9-tetramethyl-1-(4-nitro-1H-imidazo-1-yl)-4,8-diazaundecane-2,10-dione dioximato]-(3-)-N,N′,N″,N′″]technetium(V)]
- Epc(V) ([2]; first or only reduction listed): −1.81 V
- Epc(V) ([2]; second reduction listed): −2.02 V
- Reduction process ([2]; first or only reduction listed): reversible
- Reduction process ([2]; second reduction listed): irreversible

Molecule: CC(=NO)C(C)(C)NCC(C)CNC(C)(C)C(Cn1ccnc1[N+](=O)[O-])=NO (stereo not drawn) [Example 23, 3,3,6,9,9-Pentamethyl-1-(2-nitro-1H-imidazol-1-yl)-4,8-diazaundecane-2,10-dione dioxime]
- melting point: 167 to 168 °C

Molecule: CC(=NO)C(C)(C)NCCCNC(C)(C)C(Cn1ccnc1[N+](=O)[O-])=NO [Example 1, 3,3,9,9-Tetramethyl-1-(2-nitro-1H-imidazo-1-yl)-4,8-diazaundecane-2,10-dione dioxime]
- Epc(V) ([2]; first or only reduction listed): −1.52 V
- Reduction process ([2]; first or only reduction listed): reversible

Molecule: CC(=NO)C(C)(C)NCCCNC(C)(C)C(Cn1cc(C)nc1[N+](=O)[O-])=NO [Example 27, 3,3,9,9-Tetramethyl-1-(4-methyl-2-nitro-1H-imidazol-1-yl)-4,8-diazaundecane-2,10-dione dioxime]
- melting point: 140 to 141 °C

Molecule: COCC(O)Cn1ccnc1[N+](=O)[O-] (stereo not drawn) [Misonidazole, reference compound]
- Epc(V) ([2]; first or only reduction listed): −1.49 V
- Reduction process ([2]; first or only reduction listed): reversible

Molecule: CC(=NO)C(C)(C)NCCCNC(C)(C)C(Cn1c(C)cnc1[N+](=O)[O-])=NO [Example 28, 3,3,9,9-Tetramethyl-1-(5-methyl-2-nitro-1H-imidazol-1-yl)-4,8-diazaundecane-2,10-dione dioxime]
- melting point: 150 to 152 °C

Molecule: CC(=NO)C(C)(C)NCC(O)CNC(C)(C)C(CCn1ccnc1[N+](=O)[O-])=NO (stereo not drawn) [Example 32, 6-Hydroxy-3,3,9,9-tetramethyl-12-(2-nitro-1H-imidazol-1-yl)-4,8-diazadodecane-2,10-dione dioxime]
- melting point: 62 to 64 °C

Molecule: COC(=O)CCC(=NO)C(C)(C)NCCCNC(C)(C)C(Cn1ccnc1[N+](=O)[O-])=NO [Example 24, 12-Methoxycarbonyl-3,3,9,9-tetramethyl-1-(2-nitro-1H-imidazol-1-yl)-4,8-diazadodecane-2,10-dione dioxime]
- melting point: 137 to 139 °C

Molecule: CC(=NO)C(C)(C)NCC(C)CNC(C)(C)C(C)=NO (stereo not drawn) [^99mTc Complex of 6-methyl-PnAO, ^99mTc-complexes of 6-methyl PnAO (3,3,6,9,9-pentamethyl-4,8-diazaundecane-2,10-dione dioxime), metal not drawn, reference compound]
- regional myocardial distribution pattern (autoradiography) [1]: no differentiation of ischemic and non-ischemic regions
- Anoxia/normoxia ratio [3]: 1.3
- % in Cell Pellet, Anoxia [3]: 22.7 (n = 1) %
- % in Cell Pellet, Normoxia [3]: 17.4 (n = 1) %

Molecule: CC(=NO)C(C)(C)NCC(O)CNC(C)(C)C(Cn1ccnc1[N+](=O)[O-])=NO (stereo not drawn) [Example 4, 6-Hydroxy-3,3,9,9-tetramethyl-1-(2-nitro-1H-imidazo-1-yl)-4,8-diazaundecane-2,10-dione dioxime]
- Epc(V) ([2]; first or only reduction listed): −1.51 V
- Reduction process ([2]; first or only reduction listed): reversible

Molecule: Cc1ncc([N+](=O)[O-])n1CCO [Metronidazole, reference compound]
- Epc(V) ([2]; first or only reduction listed): −1.62 V
- Reduction process ([2]; first or only reduction listed): reversible

Molecule: CC(=NO)C(C)(C)NCCCNC(C)(C)C(Cn1cnc([N+](=O)[O-])c1)=NO [Example 2, 3,3,9,9-Tetramethyl-1-(4-nitro-1H-imidazo-1-yl)-4,8-diazaundecane-2,10-dione dioxime]
- Epc(V) ([2]; first or only reduction listed): −1.81 V
- Reduction process ([2]; first or only reduction listed): reversible

Molecule: CC(=NO)C(C)(C)NCC(CNC(C)(C)C(C)=NO)CC(O)Cn1ccnc1[N+](=O)[O-] (stereo not drawn) [Example 26, 3,3,9,9-Tetramethyl-6-[2-hydroxy-3-(2-nitro-1H-imidazol-1-yl)propyl]-4,8-diazaundecane-2,10-dione dioxime]
- melting point: 185 to 187 °C

Molecule: CC1=[N+](O)[99Tc-]23(=[O])[N](CCC[N]2C1(C)C)C(C)(C)C(CCn1ccnc1[N+](=O)[O-])=[N+]3[O-] [Example 19, [^99Tc]Oxo[[4,4,10,10-tetramethyl-1-(2-nitro-1H-imidazo-1-yl)-5,9-diazadodecane-3,11-dione dioximato](3-)-N,N′,N″,N′″]technetium(V)]
- Epc(V) ([2]; first or only reduction listed): −1.53 V
- Epc(V) ([2]; second reduction listed): −2.07 V
- Reduction process ([2]; first or only reduction listed): reversible
- Reduction process ([2]; second reduction listed): irreversible

Molecule: CC(=NO)C(C)(C)NCCCNC(C)(C)C(CCn1ccnc1[N+](=O)[O-])=NO [Example 3, 4,4,10,10-Tetramethyl-1-(2-nitro-1H-imidazo-1-yl)-5,9-diazadodecane-3,11-dione dioxime]
- Epc(V) ([2]; first or only reduction listed): −1.54 V
- Reduction process ([2]; first or only reduction listed): reversible

Molecule: CC(=NO)C(C)(C)NCC(O)CNC(C)(C)C(C)=NO (stereo not drawn) [^99mTc Complex of 6-hydroxy-PnAO, 6-hydroxy PnAO(6-hydroxy-3,3,9,9-tetramethyl-4,8-diazaundecane-2,10-dione dioxime), metal not drawn, reference compound]
- Anoxia/normoxia ratio [3]: 1.3
- % in Cell Pellet, Anoxia [3]: 9.2 (n = 1) %
- % in Cell Pellet, Normoxia [3]: 7.1 (n = 1) %
